Measured values published in the OligoGym collection.
Several values for one entry are separate records, joined by “and”; a condition that tells them apart may be missing. Equal values may be shown once. After the bases stand the sugars from the 5' end (letter, count) and the backbone: PS all phosphorothioate, else s phosphorothioate and o phosphodiester by linkage. Methylation of C is not given here. e = 2'-O-(2-methoxyethyl) (MOE); k = constrained ethyl (cEt); d = 2'-deoxy (DNA)

Biological target: KRAS
Details: ASO

Sequence	target mRNA inhibition (A431, 2 µM)	also measured
AGTGATTAGGTCAAAT (sugars kkddddddddkekekk, PS)	46%	
AGTGTGACTCAGTTAA (sugars k3 d9 k3 e1, PS)	15%	
AGTGTGACTCAGTTAA (sugars kkddddddddddkeke, PS)	41%	
AGTGTGACTCAGTTAA (sugars kkdddddddddkdkdk, PS)	38%	
AGTTTCACATAGCAAT (sugars k3 d10 k3, PS)	38%	
ATAATAATCCCCATTT (sugars k3 d10 k3, PS)	4%	
ATATCCACAGCAGCAG (sugars k3 d10 k3, PS)	39%	
ATCCATTTATGTGACT (sugars k3 d10 k3, PS)	38%	
ATCTTTTAATGTCACA (sugars k3 d10 k3, PS)	58%	target mRNA inhibition (A431, 0.037 µM): 74%; target mRNA inhibition (A431, 5 µM): 97% and 96%; target mRNA inhibition (NCI-H460, 0.037 µM): 65.3%
ATGCTGTGAAACTCTC (sugars kddddddddddkekek, PS)	18%	
ATGCTGTGAAACTCTC (sugars kkddddddddddkeke, PS)	35%	
ATGCTGTGAAACTCTC (sugars kkddddddddkekekk, PS)	25%	
ATGCTGTGAAACTCTC (sugars kkkdddddddddkeke, PS)	2%	
ATGGTGTAACATAGGT (sugars kdddddddddkekeke, PS)	39%	
ATGGTGTAACATAGGT (sugars kkddddddddddkeke, PS)	65%	target mRNA inhibition (A431, 0.185 µM): 22%; target mRNA inhibition (A431, 0.556 µM): 39%; target mRNA inhibition (A431, 1.667 µM): 60%; target mRNA inhibition (A431, 5 µM): 69%
ATGGTGTAACATAGGT (sugars kkdddddddddkekek, PS)	53%	target mRNA inhibition (NCI-H460, 0.037 µM): 52.7%
ATGGTGTAACATAGGT (sugars kkkdddddddddkeke, PS)	43%	
ATGGTGTAACATAGGT (sugars kkkddddddddkdkdk, PS)	36%	
ATTACTTTTTGACAAA (sugars k3 d10 k3, PS)	0%	
ATTAGTGATTAGGTCA (sugars k3 d10 k3, PS)	55%	target mRNA inhibition (A431, 0.185 µM): 2% and 25%; target mRNA inhibition (A431, 0.556 µM): 37%; target mRNA inhibition (A431, 1.667 µM): 47%; target mRNA inhibition (A431, 5 µM): 71%
ATTGTGCTGAGCTTGA (sugars kdddddddddkekeke, PS)	18%	
CAAGATGACACTAATA (sugars k3 d10 k3, PS)	18%	
CACTTCATTGTTTAAA (sugars k3 d10 k3, PS)	12%	

Sequence	target mRNA inhibition (A431, 2 µM)	also measured
CAGACTTGAAAAGTGT (sugars k3 d10 k3, PS)	24%	
CAGTGTGACTCAGTTA (sugars kkddddddddddkeke, PS)	51%	
CAGTGTTAAGAGAACT (sugars kdddddddddkekeke, PS)	40%	
CATGCTGTGAAACTCT (sugars k3 d10 k3, PS)	8%	
CATTTCTGATGTGACT (sugars k3 d10 k3, PS)	32%	
CCAGTGATACTTTCAC (sugars kkddddddddkekekk, PS)	17%	
CCAGTGTTAAGAGAAC (sugars kkddddddddddkeke, PS)	42%	
CCATGCTGTGAAACTC (sugars k3 d10 k3, PS)	26%	
CCATTCAAAGTTCACA (sugars k3 d9 k3 e1, PS)	41%	
CCATTCAAAGTTCACA (sugars k3 d10 k3, PS)	42%	
CCATTTATGTGACTAG (sugars kkddddddddkekekk, PS)	0%	
CCATTTATGTGACTAG (sugars kkkddddddddkekek, PS)	36%	
CTATTAGGAGTCTTTA (sugars k3 d10 k3, PS)	34%	
CTCTATGAAAGCTCAA (sugars k3 d10 k3, PS)	39%	
CTTGAAAAGTGTTTAT (sugars k3 d10 k3, PS)	0%	
CTTGATTTGTCAGCAG (sugars kkkddddddddkdkdk, PS)	33%	
CTTTTTGACAAATGGA (sugars k3 d10 k3, PS)	22%	
GATGGTGTAACATAGG (sugars k3 d10 k3, PS)	60%	target mRNA inhibition (A431, 0.185 µM): 8%; target mRNA inhibition (A431, 0.556 µM): 30%; target mRNA inhibition (A431, 1.667 µM): 56%; target mRNA inhibition (A431, 5 µM): 68%
GATTGTGCTGAGCTTG (sugars kkdddddddddkekek, PS)	45%	
GATTGTGCTGAGCTTG (sugars kkddddddddkekekk, PS)	14%	
GATTTGTCAGCAGGAC (sugars kkddddddddkekekk, PS)	0%	
GCTCTTGATTTGTCAG (sugars k3 d10 k3, PS)	23%	
GGAGTCTTTATAGTAA (sugars kkddddddddddkeke, PS)	55%	target mRNA inhibition (A431, 0.185 µM): 27%; target mRNA inhibition (A431, 0.556 µM): 45%; target mRNA inhibition (A431, 1.667 µM): 57%; target mRNA inhibition (A431, 5 µM): 82%

Sequence	target mRNA inhibition (A431, 2 µM)	also measured
GGAGTCTTTATAGTAA (sugars kkddddddddkekekk, PS)	25%	
GGCAAGATGACACTAA (sugars k3 d10 k3, PS)	30%	
GGGAATTACAAGTATT (sugars k3 d10 k3, PS)	28%	
GGTAAAAGCTAACAGT (sugars k3 d10 k3, PS)	49%	
GGTGTAACATAGGTTA (sugars k3 d10 k3, PS)	55% and 50%	target mRNA inhibition (A431, 0.185 µM): 7%; target mRNA inhibition (A431, 0.556 µM): 29%; target mRNA inhibition (A431, 1.667 µM): 47%; target mRNA inhibition (A431, 5 µM): 67%
GTAAAAGCTAACAGTC (sugars k3 d10 k3, PS)	21%	
GTCCAGTGATACTTTC (sugars k3 d9 k3 e1, PS)	48%	
GTCCAGTGATACTTTC (sugars kddddddddddkekek, PS)	36%	
GTCCAGTGATACTTTC (sugars kkddddddddkekekk, PS)	22%	
GTGCAATGGTGACAAC (sugars k3 d10 k3, PS)	38%	
GTGTGACTCAGTTAAA (sugars kddddddddddkekek, PS)	30%	
GTGTGACTCAGTTAAA (sugars kdddddddddkekeke, PS)	25%	
GTGTTTATGCAATGTT (sugars kddddddddddkekek, PS)	53%	
GTGTTTATGCAATGTT (sugars kdddddddddkekeke, PS)	41%	
GTGTTTATGCAATGTT (sugars kkkddddddddkdkdk, PS)		target mRNA inhibition (A431, 0.125 µM): 70% and 58%; target mRNA inhibition (A431, 0.185 µM): 27%; target mRNA inhibition (A431, 0.556 µM): 47%; target mRNA inhibition (A431, 1.667 µM): 73%; target mRNA inhibition (A431, 5 µM): 81%
GTTTATGCAATGTTAA (sugars kddddddddddkekek, PS)	37%	
GTTTATGCAATGTTAA (sugars kkddddddddkekekk, PS)	57%	target mRNA inhibition (A431, 0.185 µM): 27%; target mRNA inhibition (A431, 0.556 µM): 46%; target mRNA inhibition (A431, 1.667 µM): 45%; target mRNA inhibition (A431, 5 µM): 79%
TAATCCATTTATGTGA (sugars k3 d10 k3, PS)	31%	
TAATGTCACAAGCAGA (sugars k3 d10 k3, PS)	52%	
TAGGAGTCTTTATAGT (sugars k3 d10 k3, PS)	41%	
TAGTGATTAGGTCAAA (sugars kkdddddddddkdkdk, PS)	25%	
TATAATAATCCCCATT (sugars k3 d10 k3, PS)	7%	
TCAAAGTTCACATAAA (sugars k3 d10 k3, PS)	19%	

Sequence	target mRNA inhibition (A431, 2 µM)	also measured
TCATTGTTTAAAAAAA (sugars k3 d10 k3, PS)	0%	
TCCAGTGATACTTTCA (sugars kkddddddddddkeke, PS)	39%	
TCCATTTATGTGACTA (sugars kddddddddddkekek, PS)	38%	
TCCATTTATGTGACTA (sugars kkkddddddddkdkdk, PS)	16%	
TCCATTTATGTGACTA (sugars kkkddddddddkekek, PS)	0%	
TCTGAATTAGTCTCCA (sugars k3 d10 k3, PS)	62% and 50%	target mRNA inhibition (A431, 0.185 µM): 0%; target mRNA inhibition (A431, 0.556 µM): 26%; target mRNA inhibition (A431, 1.667 µM): 48%; target mRNA inhibition (A431, 5 µM): 68%
TCTTGTTGAGCTATCC (sugars k3 d10 k3, PS)	56%	target mRNA inhibition (A431, 0.185 µM): 28% and 3%; target mRNA inhibition (A431, 0.556 µM): 38% and 29%; target mRNA inhibition (A431, 1.667 µM): 61% and 40%; target mRNA inhibition (A431, 5 µM): 82% and 64%
TCTTTTAATGTCACAA (sugars k3 d10 k3, PS)	46%	
TGAAAAGTGTTTATGC (sugars k3 d10 k3, PS)	40%	
TGATTTGTCAGCAGGA (sugars kkkddddddddkekek, PS)	41%	
TGCAATGTTAATTTAA (sugars k3 d10 k3, PS)	13%	
TGCTATAATAATCCCC (sugars k3 d10 k3, PS)	43%	
TGCTGTGAAACTCTCT (sugars kkddddddddddkeke, PS)	30%	
TGCTGTGAAACTCTCT (sugars kkdddddddddkekek, PS)	0%	
TGCTGTGAAACTCTCT (sugars kkddddddddkekekk, PS)	5%	
TGTGCAATGGTGACAA (sugars k3 d10 k3, PS)	28%	
TGTTTAAAAAAAAAAT (sugars k3 d10 k3, PS)	2%	
TGTTTATGCAATGTTA (sugars k3 d10 k3, PS)		target mRNA inhibition (A431, 0.125 µM): 49% and 53%; target mRNA inhibition (A431, 0.185 µM): 21% and 0%; target mRNA inhibition (A431, 0.556 µM): 40% and 27%; target mRNA inhibition (A431, 1.667 µM): 53%; target mRNA inhibition (A431, 5 µM): 79% and 68%; target mRNA inhibition (NCI-H460, 0.037 µM): 41%
TGTTTATGCAATGTTA (sugars kkddddddddddkeke, PS)	23%	
TGTTTATGCAATGTTA (sugars kkdddddddddkdkdk, PS)	46%	
TTAAAAAAAAAATTAA (sugars k3 d10 k3, PS)	0%	
